Measurements reported in patent US4044043A, “Derivatives of 9-oxo-13-trans-prostenoic acid esters” (American Cyanamid Company, priority 1975, dated 1977).
In brackets after ≈: the same amount, converted by molar mass.

These compounds were tested on diastolic blood pressure (assay: Prostaglandin-like hypotensive activity in anesthetized rats (minimal dose for about 10 mm. decrease in diastolic blood pressure)). Conditions: Rattus norvegicus; intravenous; decrease of about 10 mm. in diastolic blood pressure.
Type: in vivo, Male Wistar strain rats
Outline: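 Male Wistar rats (~250 g), pentobarbital 30 mg./kg. i.v. and hexamethonium 2 mg./kg. i.v., iliac artery cannulated for blood pressure. Compounds in saline-Tween 80 given i.v. at 0.1–10.0 mg./kg.; value is the minimal dose giving ~10 mm. drop in diastolic pressure.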

SMILES	minimal effective dose
CCCCCC/C=C/[C@H]1CCC(=O)[C@@H]1CC(=O)OCC (relative stereo) [ethyl 9-oxo-3,4,5,6,7-pentanor-13-trans-prostenoate]	8 mg/kg
CCOC(=O)CCCCCC[C@H]1C(=O)CC[C@@H]1/C=C/CCC[S+]([O-])CC (stereo partly drawn) [ethyl 9-oxo-18-oxythia-13-trans-prostenoate]	2 mg/kg

These compounds were tested on gastric acid secretion (assay: Inhibition of basal Gastric Acid Secretion (Acute Gastric Fistula Rat)). Conditions: 1 h, 10 mg./kg. intraduodenal, A: 60 minute collection, read-out: % Inhibition Total Acid Output.
Type: in vivo, Female Sprague-Dawley rats
Protocol: Inhibition of basal gastric acid secretion was determined in the acute gastric fistula rat as follows. Female Sprague-Dawley rats (Charles River Laboratories) weighing 140-160 grams are fasted in individual cages for 18-24 hours. The rats are then lightly anesthetized with ether and their front teeth extracted to avoid destruction of the plastic cannula. A midline incision is then made and the stomach and duodenum exposed. A flanged polyvinyl tube is inserted into the fundic portion of the stomach and secured with a purse string suture line using 4-0 Mersilene. The rat is then dosed by injection of the compound into the duodenum (1.0 ml. per 100 gram body weight). After dosing, the abdominal wall and skin are closed using metal wound clips. The rat is replaced in a cage containing a longitudinal slit to allow the polyvinyl tube to hang freely. An 8 ml. plastic collecting tube is attached to the flanged cannula and hangs freely below the cage. The first 30 minute sample is discarded designating this time as zero. The collecting tube is attached again and samples removed at the end of 60 and 120 minutes. Those samples are referred to as "A" and "B" in the table. The hourly samples are then transferred to a 15 ml. centrifuge tube and centrifuged for 5-10 minutes. Total and sediment volume are then recorded with the supernatant volume being used as volume of secretion. A 1 ml. or less aliquot is then removed and placed in a 50 ml. beaker containing 10 ml. of distilled water. This sample is then titrated using 0.01N NaOH to pH 7.0 using a Beckman zeromatic pH meter. Volume, titratable acidity (meq/L) and total acid output (μ eq/hour) are recorded. Percent inhibition is determined by comparison with the appropriate control. Groups of three rats were used. All compounds are administered in vehicle (0.5% methocel, 0.4% Tween 80, saline) at a constant volume of 1 ml./100 gram rat. Samples were sonicated with care to prevent overheating.

SMILES	inhibition in vivo at 10 mg/kg
CCCCCC/C=C/[C@H]1CCC(=O)[C@@H]1CCCCCC(CC)C(=O)OCC (stereo partly drawn) [ethyl 9-oxo-2-ethyl-13-trans-prostenoate, ethyl 2-ethyl-9-oxo-13-trans-prostenoate]	56%
CCCCCC/C=C/[C@@H]1CCC(=O)[C@H]1CCCCOCC(=O)OCC (relative stereo) [ethyl 9-oxo-3-oxa-13-trans-prostenoate, ethyl 3-oxa-9-oxo-13-trans-prostenoate]	40%

Same assay, conditions: 1 h, 10 mg./kg. intraduodenal, A: 60 minute collection, read-out: % Inhibition Total Acidity

SMILES	inhibition in vivo at 10 mg/kg
CCCCCC/C=C/[C@H]1CCC(=O)[C@@H]1CCCCCC(CC)C(=O)OCC (stereo partly drawn) [ethyl 9-oxo-2-ethyl-13-trans-prostenoate, ethyl 2-ethyl-9-oxo-13-trans-prostenoate]	66%
CCCCCC/C=C/[C@@H]1CCC(=O)[C@H]1CCCCOCC(=O)OCC (relative stereo) [ethyl 9-oxo-3-oxa-13-trans-prostenoate, ethyl 3-oxa-9-oxo-13-trans-prostenoate]	37%

Same assay, conditions: 2 h, 10 mg./kg. intraduodenal, B: 120 minute collection, read-out: % Inhibition Total Acid Output

SMILES	inhibition in vivo at 10 mg/kg
CCCCCCC=CC1CCC(=O)C1CCCCCC(C(=O)O)c1ccccc1 (stereo not drawn) [9-oxo-2-phenyl-13-trans-prostenoic acid]	44%
CCCCCC/C=C/[C@H]1CCC(=O)[C@@H]1CCCCCC(CC)C(=O)OCC (stereo partly drawn) [ethyl 9-oxo-2-ethyl-13-trans-prostenoate, ethyl 2-ethyl-9-oxo-13-trans-prostenoate]	48%

Same assay, conditions: 2 h, 10 mg./kg. intraduodenal, B: 120 minute collection, read-out: % Inhibition Total Acidity

SMILES	inhibition in vivo at 10 mg/kg
CCCCCCC=CC1CCC(=O)C1CCCCCC(C(=O)O)c1ccccc1 (stereo not drawn) [9-oxo-2-phenyl-13-trans-prostenoic acid]	26%
CCCCCC/C=C/[C@H]1CCC(=O)[C@@H]1CCCCCC(CC)C(=O)OCC (stereo partly drawn) [ethyl 9-oxo-2-ethyl-13-trans-prostenoate, ethyl 2-ethyl-9-oxo-13-trans-prostenoate]	49%

What follows are compounds tested on gastric acid secretion (assay: Inhibition of Gastric Acid Secretion (Pylorous-Ligated Rat), Shay rat procedure). Conditions: 50 mg./kg. intraduodenal, read-out: % Inhibition of Control Gastric Acid Secretion.
Type: in vivo, rats (male, CFE strain)
Outline: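 Male CFE rats were fasted 48 h, then pylorus-ligated under ether. Gastric contents were titrated with 0.02N or 0.04N NaOH to pH 8.4 for acid output, and ≥20% inhibition counted as active.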

SMILES	inhibition in vivo at 50 mg/kg
CCCCCC/C=C/[C@@H]1CCC(=O)[C@H]1CCCCOCC(=O)OCC (relative stereo) [ethyl 9-oxo-3-oxa-13-trans-prostenoate, ethyl 3-oxa-9-oxo-13-trans-prostenoate]	48%

Same assay, conditions: 100 mg./kg. intraduodenal, read-out: % Inhibition of Control Gastric Acid Secretion

SMILES	inhibition in vivo at 100 mg/kg
CCCCCC/C=C/[C@H]1CCC(=O)[C@@H]1CCCCCC(CC)C(=O)OCC (stereo partly drawn) [ethyl 9-oxo-2-ethyl-13-trans-prostenoate, ethyl 2-ethyl-9-oxo-13-trans-prostenoate]	42%
CCCCCC/C=C/[C@@H]1CCC(=O)[C@H]1CCCCOCC(=O)OCC (relative stereo) [ethyl 9-oxo-3-oxa-13-trans-prostenoate, ethyl 3-oxa-9-oxo-13-trans-prostenoate]	89%

Same assay, conditions: 109 mg./kg., 1 hr. pre-ligation, read-out: % Inhibition of Control Gastric Acid Secretion

SMILES	inhibition in vivo at 109 mg/kg
CCCCCC/C=C/[C@@H]1CCC(=O)[C@H]1CCCCOCC(=O)OCC (relative stereo) [ethyl 9-oxo-3-oxa-13-trans-prostenoate, ethyl 3-oxa-9-oxo-13-trans-prostenoate]	59%

What follows are compounds tested on dl-PGE1-induced contraction of gerbil colon (assay: Inhibition of dl-PGE1-Induced Contraction of Gerbil Colon (prostaglandin antagonist action)). Conditions: Meriones unguiculatus, 1 min; sub-maximal challenge, 20 ng./ml. dl-PGE1; 50% inhibition of maximum response; read-out: ID50 vs. 20 ng. of PGE1/ml.
Type: cell-based, gerbils (Meriones unguiculatus)
Outline: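 Ascending colon from male gerbils, held in De Jalon's solution at 37 °C under 95% O2/5% CO2 with 0.5 g resting tension, contraction recorded isometrically. 1 min compound exposure, then 1 min dl-PGE1 at 200 ng/ml (maximal) or 20 ng/ml (sub-maximal). Approximate ID50 taken from a concentration series against the preceding agonist-only cycle.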

IC50	SMILES
5 to 7 µg/mL (≈ 12.5 to 17.6 µM)	CCCCCCC=CC1CCC(=O)C1CCCCCC(C(=O)O)c1ccccc1 (stereo not drawn) [9-oxo-2-phenyl-13-trans-prostenoic acid]
10 to 25 µg/mL (≈ 26.4 to 66 µM)	CCCCCC/C=C/[C@H]1CCC(=O)[C@@H]1CCCCCC(CC)C(=O)OCC (stereo partly drawn) [ethyl 9-oxo-2-ethyl-13-trans-prostenoate, ethyl 2-ethyl-9-oxo-13-trans-prostenoate]

These compounds were tested on Mycobacterium smegmatis ATCC 606 (assay: agar-dilution streak-plate antimicrobial assay). Conditions: Mycolicibacterium smegmatis, ATCC606, read-out: Minimal inhibitory conc. (6).
Type: cell-based
Outline: (§1)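 Test solutions at 2.5 mg/ml were two-fold serially diluted, and 1 ml of each was mixed into 9 ml warm nutrient agar, with bacterial and fungal media kept separate. Overnight broth cultures or saline spore suspensions were streaked by loop. MIC was the lowest concentration (µg/ml) giving complete visible growth inhibition.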

MIC	SMILES
125 µg/mL (≈ 446 µM)	CCCCCC/C=C/[C@H]1CCC(=O)[C@@H]1CC(=O)OCC (relative stereo) [ethyl 9-oxo-3,4,5,6,7-pentanor-13-trans-prostenoate]
250 µg/mL (≈ 650 µM)	CCOC(=O)CCCCCC[C@H]1C(=O)CC[C@@H]1/C=C/CCC[S+]([O-])CC (stereo partly drawn) [ethyl 9-oxo-18-oxythia-13-trans-prostenoate]

What follows are compounds tested on Trichophyton mentagrophytes E 11 (assay: agar-dilution streak-plate antimicrobial assay). Conditions: E11, read-out: Minimal inhibitory conc. (4).
Type: cell-based
Outline: as §1

MIC	SMILES
125 µg/mL (≈ 446 µM)	CCCCCC/C=C/[C@H]1CCC(=O)[C@@H]1CC(=O)OCC (relative stereo) [ethyl 9-oxo-3,4,5,6,7-pentanor-13-trans-prostenoate]
250 µg/mL (≈ 650 µM)	CCOC(=O)CCCCCC[C@H]1C(=O)CC[C@@H]1/C=C/CCC[S+]([O-])CC (stereo partly drawn) [ethyl 9-oxo-18-oxythia-13-trans-prostenoate]

Each compound was assayed on Trichophyton tonsurans NIH 662 (assay: agar-dilution streak-plate antimicrobial assay). Conditions: NIH662, read-out: Minimal inhibitory conc. (3).
Type: cell-based
Outline: as §1

MIC	SMILES
250 µg/mL (≈ 892 µM)	CCCCCC/C=C/[C@H]1CCC(=O)[C@@H]1CC(=O)OCC (relative stereo) [ethyl 9-oxo-3,4,5,6,7-pentanor-13-trans-prostenoate]
250 µg/mL (≈ 650 µM)	CCOC(=O)CCCCCC[C@H]1C(=O)CC[C@@H]1/C=C/CCC[S+]([O-])CC (stereo partly drawn) [ethyl 9-oxo-18-oxythia-13-trans-prostenoate]

What follows are compounds tested on Streptococcus pyogenes C 203 (assay: agar-dilution streak-plate antimicrobial assay). Conditions: C203, read-out: Minimal inhibitory conc. (8).
Type: cell-based
Outline: as §1

MIC	SMILES
125 µg/mL (≈ 446 µM)	CCCCCC/C=C/[C@H]1CCC(=O)[C@@H]1CC(=O)OCC (relative stereo) [ethyl 9-oxo-3,4,5,6,7-pentanor-13-trans-prostenoate]

These compounds were tested on Trichophyton rubrum E 97 (assay: agar-dilution streak-plate antimicrobial assay). Conditions: E97, read-out: Minimal inhibitory conc. (5).
Type: cell-based
Outline: as §1

MIC	SMILES
250 µg/mL (≈ 650 µM)	CCOC(=O)CCCCCC[C@H]1C(=O)CC[C@@H]1/C=C/CCC[S+]([O-])CC (stereo partly drawn) [ethyl 9-oxo-18-oxythia-13-trans-prostenoate]
